Assay results: patent US20220331414A1, “LIPID COMPOUNDS AND LIPID NANOPARTICLE COMPOSITIONS” (Suzhou Abogen Biosciences Co., Ltd., priority 2020, published 2022)

Experiments:
[1] = Apparent pKa of LNP formulations by TNS fluorescence assay; settings: LNP cationic lipid/DSPC/cholesterol/DMG-PEG 50/10/38.5/1.5 mol %, pH 3 to 9
Experimental: TNS was prepared as a 300 uM stock solution in distilled water. LNP formulations were diluted to 0.1 mg/ml total lipid in 3 mL of buffered solutions containing 50 mM sodium citrate, 50 mM sodium phosphate, 50 mM sodium borate, and 30 mM sodium chloride where the pH ranged from 3 to 9. An aliquot of the TNS solution was added to give a final concentration of 0.1 mg/ml and following vortex mixing fluorescence intensity was measured at room temperature in a Molecular Devices Spectramax iD3 spectrometer using excitation and mission wavelengths of 325 nm and 435 nm. A sigmoidal best fit analysis was applied to the fluorescence data and the pKa value was measured as the pH giving rise to half—maximal fluorescent intensity.

[2] = Encapsulation efficiency of lipid nanoparticles (Quant-it Ribogreen RNA assay); type: physicochemical; settings: LNP of cationic lipid/DSPC/cholesterol/PEG-lipid 50:10:38.5:1.5 with mRNA
Experimental: (§1) Briefly, a cationic lipid provided herein, DSPC, cholesterol, and PEG-lipid were solubilized in ethanol at a molar ratio of 50:10:38.5:1.5, and mRNA were diluted in 10 to 50 mM citrate buffer, pH=4. The LNPs were prepared at a total lipid to mRNA weight ratio of approximately 10:1 to 30:1 by mixing the ethanolic lipid solution with the aqueous mRNA solution at a volume ratio of 1:3 using a microfluidic apparatus, total flow rate ranging from 9-30 mL/min. Ethanol were thereby removed and replaced by DPBS using dialysis. Finally, the lipid nanoparticles were filtered through a 0.2 μm sterile filter.
(§2) Lipid nanoparticle size were determined by dynamic light scattering using a Malvern Zetasizer Nano ZS (Malvern UK) using a 173° backscatter detection mode. The encapsulation efficiency of lipid nanoparticles were determined using a Quant-it Ribogreen RNA quantification assay kit (Thermo Fisher Scientific, UK) according to the manufacturer's instructions.

[3] = Lipid nanoparticle size and polydispersity by dynamic light scattering; type: physicochemical; settings: LNP of cationic lipid/DSPC/cholesterol/PEG-lipid 50:10:38.5:1.5 with mRNA
Experimental: as §1, §2

Compound	Apparant Pka [1]	Encapsulation Efficiency [2] [%]	polydispersity [3]	size (nm) [3] [nm]
CCCCCCCCC(CCCCCC)C(C)OP(=O)(NCCN(CC)CC)OC(C)C(CCCCCC)CCCCCCCC (centres unmarked) [Compound 59]	4.385	58.6	0.118	90.85
CCCCCCCCCCCCCCOP(=O)(NCCCN(C)C)OCCCCCCCCCCCCCC [Compound 11]	8.53	81.3	0.092	107.7
CCCCCCCCCCCCCOP(=O)(OCCCCCCCCCCCCC)N1CCC(N(C)C)CC1 [Compound 18]	6.16	94.3	0.074	159.2
CCCCCCCCC(CC)COP(=O)(NCCN(CC)CC)OCC(CC)CCCCCCCC (centres unmarked) [Compound 67]	7.195	93.3	0.116	86.9
CCCCCCCCC(C)COP(=O)(NCCN1CCCC1)OCC(C)CCCCCCCC (centres unmarked) [Compound 68]	7.401	95.0	0.253	86.75
CCCCCCCCCOP(=O)(OCCCCCCCCC)OCCCN(C)C [Compound 8]	8.10	93.2	0.187	56.41
CCCCCCCCCOC(=O)CCCCCOP(=O)(NCCCN(C)C)OCCCCCC(=O)OCCCCCCCCC [Compound 6]	7.33	88.3	0.262	111.7
CCCCCCCCCCCCCOP(=O)(NCCN1CCC1)OCCCCCCCC(=O)OC(CCCCCCCC)CCCCCCCC (centres unmarked) [Compound 41]	7.70	101.1	0.306	50.64
CCCCCCCCCCCCCOP(=O)(NC1CCN(C2CCOCC2)CC1)OCCCCCCCCCCCCC [Compound 16]	7.75	79.9	0.113	305.4
CCCCCCCCC(CCCCCCCC)OC(=O)CCCCCCCOP(=O)(NCCN(C)C)OCCCCCCCC(=O)OC(CCCCCCCC)CCCCCCCC [Compound 38]	5.84	45.9	0.094	108.5
CCCCCCCCCCCCCOP(=O)(NCCN1CCN(C(C)=O)CC1)OCCCCCCCCCCCCC [Compound 17]	5.42	61.6	0.073	119.8
CCCCCCCCC(CCCCCCCC)OC(=O)CCCCCCCOP(=O)(NCCCN(C)C)NCCCN(C)C [Compound 37]	4.55	48.8	0.166	104.3
CCCCCCCCC(CCCCCCCC)OC(=O)CCCCCCCOP(=O)(NCCCN(C)C)OCCCCCCC (centres unmarked) [Compound 43]	8.08	98.3	0.196	76.16
CCCCCCCCCCCCCOP(=O)(NCCCN1CCCC1)OCCCCCCCCCCCCC [Compound 12]	6.13	94.0	0.137	164.9
CCCCCCCCCOP(=O)(NCCCN(C)C)OCCCCCCCC(=O)OC(CCCCCCCC)CCCCCCCC (centres unmarked) [Compound 32]	8.96	101.1	0.077	80.54
CCCCCCCCC(CCCCCCCC)OC(=O)CCCCCCCOP(=O)(NCCCN(C)C)OCCCCCCCC(=O)OC(CCCCCCCC)CCCCCCCC [Compound 36]	6.20	95.3	0.091	63.97
CCCCCCCCCOC(=O)CCCCCOP(=O)(NCCN(C)C)OCCCCCC(=O)OCCCCCCCCC [Compound 5]	7.26	88.8	0.194	94.66
CCCCCCCCCCCCCOP(=O)(NCCN1CCCCC1)OCCCCCCCCCCCCC [Compound 13]	7.79	96.5	0.034	130.5
CCCCCCCCC(CCCCCCCC)OC(=O)CCCCCCCOP(=O)(NCCN(C)C)OCCCCCCC (centres unmarked) [Compound 42]		102.3	0.1	54.46
CCCCCCCCC(CCCCCC)COC(=O)CCCCCOP(=O)(NCCCN(C)C)OCCCCCC(=O)OCC(CCCCCC)CCCCCCCC (centres unmarked) [Compound 45]		102.8	0.12	63.18

Further lines, results first:

Apparant Pka [1]	Encapsulation Efficiency [2] [%]	polydispersity [3]	size (nm) [3] [nm]	Compound
	93.48	0.094	73.81	CCCCCCCCC(CCCCCC)COP(=O)(NCCN(C(C)C)C(C)C)OCC(CCCCCC)CCCCCCCC (centres unmarked) [Compound 48]
3.88	16.8	0.197	71.91	CCCCCCCCC(CCCCCC)COP(=O)(NCCN1CCOCC1)OCC(CCCCCC)CCCCCCCC (centres unmarked) [Compound 30]
5.216	71.7	0.153	53.57	CCCCCCCC(CCCCCCC)COP(=O)(NCCN1CCCC1)OCC(CCCCCCC)CCCCCCC [Compound 85]
4.79	70.2	0.105	80.66	CCCCCCCCC(CCCCCC)COP(=O)(NCCN(C)C)OCC(CCCCCC)CCCCCCCC (centres unmarked) [Compound 21]
5.063	89.9	0.338	56.35	CCCCCCCCC(CCCCCC)COP(=O)(NCCN1CC2CC2C1)OCC(CCCCCC)CCCCCCCC (centres unmarked) [Compound 62]
5.49	52.3	0.057	109.7	CCCCCCCCC(CCCCCC)COP(=O)(NCCCN1CCCC1)OCC(CCCCCC)CCCCCCCC (centres unmarked) [Compound 25]
4.92	48.1	0.204	77.49	CCCCCCCCC(CCCCCC)COP(=O)(NCCN1CCCCCC1)OCC(CCCCCC)CCCCCCCC (centres unmarked) [Compound 28]
5.64	88.8	0.037	138.5	CCCCCCCCC(CCCCCC)COP(=O)(NCCN(CCO)CCCC)OCC(CCCCCC)CCCCCCCC (centres unmarked) [Compound 14]
6.892	97.0	0.148	53.85	CCCCCCCCC(CCCCCC)COP(=O)(NCCN1CCC(O)C1)OCC(CCCCCC)CCCCCCCC (centres unmarked) [Compound 63]
5.644	88.8	0.037	138.5	CCCCCCCCC(CCCCCC)COP(=O)(NCCN(CCO)CCCC)OCC(CCCCCC)CCCCCCCC (centres unmarked) [Compound 54]
6.319	87.8	0.056	82.63	CCCCCCC(CCCCCC)COP(=O)(NCCN1CCCC1)OCC(CCCCCC)CCCCCC [Compound 83]
	85.5	0.09	93.25	CCCCCCCCC(CCCCCC)COP(=O)(NCCN(CCC)CCC)OCC(CCCCCC)CCCCCCCC (centres unmarked) [Compound 50]
7.43	100.4	0.234	57.36	CCCCCCCCC(CCCCCC)COP(=O)(NCCCN1CCC1)OCC(CCCCCC)CCCCCCCC (centres unmarked) [Compound 23]
6.303	93.8	0.045	66.05	CCCCCCCCCCC(CCCCCCCCCC)COP(=O)(NCCN1CCCC1)OCC(CCCCCCCCCC)CCCCCCCCCC [Compound 87]
4.666	76.6	0.24	74.49	CCCCCCCCC(CCCCCC)COP(=O)(OCCN1CCCC1)OCC(CCCCCC)CCCCCCCC (centres unmarked) [Compound 76]
5.661	92.7	0.218	56.41	CCCCCCCCC(CCCCCCCC)COP(=O)(NCCN1CCCC1)OCC(CCCCCCCC)CCCCCCCC [Compound 81]
4.924	81.0			CCCCCCCCCCC(CCCCCCCCCC)COP(=O)(NCCN(CC)CC)OCC(CCCCCCCCCC)CCCCCCCCCC [Compound 86]
5.253	92.5	0.264	139.3	CCCCCCCCC(CCCCCC)COP(=O)(NCCN(CCO)CCCCCC)OCC(CCCCCC)CCCCCCCC (centres unmarked) [Compound 56]
	82.85	0.163	69.3	CCCCCCCCC(CCCCCC)COP(=O)(NCCN1CC2CCCC2C1)OCC(CCCCCC)CCCCCCCC (centres unmarked) [Compound 61]
